Here are results for four compounds from US4778797A, “Organo-silicon compounds, process for the manufacture of same, and anti-tumor agent comprising the compound” (Sanwa Kagaku Kenkyusho Co., Ltd., priority 1984, dated 1988).

In brackets after ≈: the same amount, converted by molar mass. Where two headings read alike, the source gives them in different places.

One data set concerns CrJ/CDI female mice. The experiment in a line: Acute toxicity. The class given is in vivo. To be noted: oral gavage. The method, then:
(§1) Each of testing compounds suspended in 0.1% P-1570 was orally and forcedly dosed through a gastric probe to CrJ/CDI female mice (21 to 22 g, age of about 5 weeks). An identification number was given to each mouse, and a weighing and observation on general behavior were carried out just before the dosage and each day after the same. Each of died mice was subjected without delay to an autopsy to check the same, more particularly in detail on enterona. All of living mice were killed at 21st day from the dosage to carry out an autopsy for checking the same, more particularly on entrails.
(§2) An LD50 was calculated in accordance with the Leed and Munch's method.
(§3) A similar test was carried out on each controls of 1-[2-[(2-trimethylsilylethyl)thio]ethylcarbamoyl]-5-fluorouracil and 1-hexylcarbamoyl-5-fluorouracil (HCFU) which is one of exemplary anti-tumor agents.

The next data set concerns KB cells. The experiment in a line: Suppression of KB cell proliferation in vitro. The format is cell-based. To be noted: Homo sapiens, 72 h, 3 days exposure, Trypan Blue dye-exclusion, read-out: KB IC50 (50% inhibition density to tumor cell proliferation). The method, then:
In a cultivation device (5% CO2, 37° C.), KB cells (1×10^4 cells) were cultivated for 24 hours in a culture tube with 1 ml of Eagle culture medium added 10% ox serum, the used culture medium was thrown away to change with a fresh culture medium (0.9 ml), and then 0.1 ml of a similar culture fluid containing each testing compound prepared by the process as described in the Examples was added to cultivate the same for further 3 days. Thereafter, living cells were dyed with Tripan Blue and measured same through a dye-exclusion method.
A control was treated in a manner similar to the above, except that a culture fluid containing no compound of the invention was added.
50% inhibition density (IC50) to the tumor cell proliferation was decided through the tests between the testing group and the control group to obtain results as shown in following Table 1.

For a further data set, the system named is B-16 melanoma. As to the kind of experiment: Anti-tumor action to B-16 melanoma. The format is in vivo, BDF1 female mice. To be noted: Mus musculus, B16, 504 h, oral, tumor weight at 21st day, read-out: B-16 melanoma Inhibition ratio. An excerpt:
B-16 melanoma (1×10^5 cells) was transplanted under skin of BDF1 female mice (age of about 5 weeks), and each of testing compounds was orally dosed at 1st, 5th and 9th day after the transplantation. At 21st day after the transplantation, the mice were killed to measure a weight of the cancerous tumor and to finally determine an inhibition ratio.

For the next data set, the system named is Colon-38 carcinoma. The experiment in a line: Anti-tumor action to Colon-38 carcinoma. The format is in vivo, BDF1 mice. To be noted: Mus musculus, 672 h, oral, tumor weight at 28th day, read-out: colon-38 Inhibition ratio. A digest of the protocol: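 BDF1 mice (20-21 g, ~5 weeks) implanted subcutaneously with Colon-38 cell suspension; compounds given orally on days 1, 5 and 9 post-transplant. Tumour volume from major/minor axes on days 11–28; on day 28 tumours excised and weighed, inhibition ratio versus untreated controls.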

A further data set can be described thus: Acute toxicity. The class given is in vivo, CrJ/CDI female mice. To be noted: mouse, in vivo; oral gavage, suspended in 0.1% P-1570, female mice, 21 days observation. The method, then: as §1, §2, §3
For the next data set, the system named is L-1210 leukemia. The experiment in a line: Anti-tumor action to L-1210 leukemia. To be noted: Mus musculus, L1210, oral; for ILS at 250 mg/kg/day: 250 mg/kg/day × 3 (1st, 5th, 9th day); for ILS at 500 mg/kg/day: 500 mg/kg/day × 3 (1st, 5th, 9th day). The class given is in vivo, BDF1 female mice. The method, then: L-1210 leukemia cell (1×10^5 cells) was transplanted in a abdominal cavity of BDF1 female mice (20-21 g, age of about 5 weeks), and each of testing compounds was orally dosed in 250 mg/kg or 500 mg/kg at 1st, 5th and 9th day after the transplantation to check days of life of the mice. [formula]

Another data set has as its system Lewis lung carcinoma. As to the kind of experiment: Anti-tumor action to Lewis lung carcinoma (primary tumor weight and metastasis). The class given is in vivo, BDF1 mice. To be noted: Mus musculus, po, 504 h. An excerpt: Lewis lung carcinoma (1×10^5 cells) was transplanted under skin of right ear of BDF1 mice (age of about 5 weeks), and each of testing compounds was orally dosed 10 times from 1st to 10th day after the transplantation. At 21st day after the transplantation, the mice were killed to measure a weight of the primarly tumor and to extract a lung. The lung was fixed in a conventional manner to count a number of metastasis on cancerous cells with use of a stereomicroscope having a low magnification. An anti-tumor action of each compound was expressed with an inhibition in weight of the primarly tumor and an inhibition of the metastasis.

A further data set deals with MM-46 adenocarcinoma. As to the kind of experiment: Anti-tumor action to MM-46 adenocarcinoma. The class given is in vivo, C3H/He female mice. To be noted: oral, 250 mg/kg/day × 3 (1st, 5th, 9th day); days to death, testing vs control group. An excerpt: MM-46 adenocarcinoma (1×10^6 cells) was transplanted under skin of C3H/He female mice (age of about 5 weeks), and each of testing compounds was orally dosed at 1st, 5th and 9th day after the transplantation to check days of life on the mice.
T: days to death on testing group, and
C: days to death on control group.

Take `CCCCCCNC(=O)n1cc(F)c(=O)[nH]c1=O` [HCFU, 1-hexylcarbamoyl-5-fluorouracil, reference compound]: in the data set on CrJ/CDI female mice (suspended in 0.1% P-1570, female mice, 21 days observation), the LD50 (usually the dose expected to kill half of the subjects tested) was found to be 1250 mg/kg.
`C[Si](C)(CCSCCNC(=O)n1cc(F)c(=O)[nH]c1=O)c1ccccc1` [Example 3, N-[2-[[2-(Dimethylphenylsilyl)ethyl]thio]ethyl]-5-fluoro-3,4-dihydro-2,4-dioxo-1(2H)-pyrimidinecarboxamide]: the IC50 in the data set with KB cells was determined as 12 µg/mL (≈ 30.3 µM). For the same compound, the inhibition in vivo at 300 mg/kg/day in the data set with B-16 melanoma (300 mg/kg/day × 3) amounted to 62%. Also, the inhibition in vivo at 315 mg/kg/day in the data set on Colon-38 carcinoma (315 mg/kg/day × 3) worked out at 82.1%. In the data set “Acute toxicity”, this compound came in with an LD50 at 504 h of 1500 mg/kg. The ILS at 250 mg/kg/day with L-1210 leukemia (read-out: L-1210 ILS) is 38%; in the data set on L-1210 leukemia (read-out: L-1210 Judgement), 25 to 50%. The ILS at 500 mg/kg/day with L-1210 leukemia (read-out: L-1210 ILS) is 82%; in the data set with L-1210 leukemia (read-out: L-1210 Judgement), 50 to 100%. For the same compound, the inhibition in vivo at 29.5 mg/kg/day with Lewis lung carcinoma (29.5 mg/kg/day × 10, 21st day, read-out: Inhibition Ratio weight LLC) amounted to 20.7%; in the data set with Lewis lung carcinoma (29.5 mg/kg/day × 10, lung, 21st day, read-out: Inhibition Ratio metastasis), 57.5%. In addition, the inhibition in vivo at 59 mg/kg/day in the data set with Lewis lung carcinoma (59 mg/kg/day × 10, 21st day, read-out: Inhibition Ratio weight LLC) is 0%; in the data set with Lewis lung carcinoma (59 mg/kg/day × 10, lung, 21st day, read-out: Inhibition Ratio metastasis) it was 95.1%. For the same compound, the “MM-46 adenocarcinoma T/C × 100” value in the data set with MM-46 adenocarcinoma is 205%.
Consider `C[Si](C)(C)CCCSCCNC(=O)n1cc(F)c(=O)[nH]c1=O` [Example 1, 5-Fluoro-3,4-dihydro-2,4-dioxo-N-[2-[[3-(trimethylsilyl)propyl]thio]ethyl]-1(2H)-pyrimidinecarboxamide], for which the IC50 with KB cells was found to be 20 µg/mL (≈ 57.6 µM). Besides, in the data set with B-16 melanoma (125 mg/kg/day × 3), the inhibition in vivo at 125 mg/kg/day was determined as 25.8%. Moreover, the inhibition in vivo at 250 mg/kg/day in the data set on B-16 melanoma (250 mg/kg/day × 3) came to 73.8%. Moreover, in the data set with Colon-38 carcinoma (278 mg/kg/day × 3), the inhibition in vivo at 278 mg/kg/day is 95.2%. Besides, the median lethal dose (LD50) at 504 h in the data set “Acute toxicity” worked out at 1580 mg/kg. The ILS at 250 mg/kg/day in the data set with L-1210 leukemia (read-out: L-1210 ILS) was 28%; in the data set on L-1210 leukemia (read-out: L-1210 Judgement), 25 to 50%. For the same compound, the figures for the ILS at 500 mg/kg/day in the data set on L-1210 leukemia (read-out: L-1210 ILS) and with L-1210 leukemia (read-out: L-1210 Judgement) were 98% and 50 to 100%, respectively. Besides, the inhibition in vivo at 13 mg/kg/day in the data set on Lewis lung carcinoma (13 mg/kg/day × 10 + Amputation, 21st day, read-out: Inhibition Ratio weight LLC) stood at 33.2%; in the data set with Lewis lung carcinoma (13 mg/kg/day × 10 + Amputation, lung, 21st day, printed in parentheses, read-out: Inhibition Ratio metastasis), 26.6%; with Lewis lung carcinoma (13 mg/kg/day × 10, 21st day, read-out: Inhibition Ratio weight LLC), 0%; in the data set with Lewis lung carcinoma (13 mg/kg/day × 10, lung, 21st day, read-out: Inhibition Ratio metastasis), 50.9%. For the same compound, the inhibition in vivo at 26 mg/kg/day with Lewis lung carcinoma (26 mg/kg/day × 10 + Amputation, 21st day, read-out: Inhibition Ratio weight LLC) was 59.8%; in the data set on Lewis lung carcinoma (26 mg/kg/day × 10 + Amputation, lung, 21st day, printed in parentheses, read-out: Inhibition Ratio metastasis), above 63%; in the data set on Lewis lung carcinoma (26 mg/kg/day × 10, 21st day, read-out: Inhibition Ratio weight LLC) it was 51.1%; with Lewis lung carcinoma (26 mg/kg/day × 10, lung, 21st day, read-out: Inhibition Ratio metastasis), 79.2%. Also, the inhibition in vivo at 52 mg/kg/day in the data set with Lewis lung carcinoma (52 mg/kg/day × 10, 21st day, read-out: Inhibition Ratio weight LLC) worked out at 31.1%; with Lewis lung carcinoma (52 mg/kg/day × 10, lung, 21st day, read-out: Inhibition Ratio metastasis), 95.7%. In addition, the “MM-46 adenocarcinoma T/C × 100” value with MM-46 adenocarcinoma is listed as 181%.
Compound `C[Si](C)(C)CCSCCNC(=O)n1cc(F)c(=O)[nH]c1=O` [1-[2-[(2-trimethylsilylethyl)thio]ethylcarbamoyl]-5-fluorouracil, reference compound] returned an LD50 at 504 h in the data set “Acute toxicity” of 1100 mg/kg. In the data set with CrJ/CDI female mice (female mice), the “autopsy findings (ulcer and laxative feces)” value was “an ulcer and laxative feces”; the “spasm (general behavior)” value is “a spasm was observed in some mice”.
